The values that follow come from US10233182B2, “Substituted spirocyclic inhibitors of autotaxin” (X-Rx, Inc., priority 2014, dated 2019).

This assay concerns the target Autotaxin (Homo sapiens (Human), UniProt Q13822). Description: Autotaxin LPC Cascade Assay. To be noted: Autotaxin 5 nM, LPC 100 μM, choline oxidase/HRP/Ampliflu Red fluorescence read-out, 2% DMSO, RT; read-out: IC50 ATX Activity. Type of assay: biochemical. The gist of the method:
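Choline liberated from LPC by autotaxin during 1 h, after a 10-min RT compound preincubation, was converted through choline oxidase/HRP to a fluorescent Ampliflu Red product.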
In general, IC50 refers to the concentration that gives 50% inhibition. With `CC(C)[C@@H](NC(=O)c1cc(C(F)(F)F)ccc1F)C(=O)N1CCC2(CC1)C(=O)N(C)C(=O)N2Cc1ccccc1` [Example 89, (R)—N-(1-(1-Benzyl-3-methyl-2,4-dioxo-1,3,8-triazaspiro[4.5]decan-8-yl)-3-methyl-1-oxobutan-2-yl)-2-fluoro-5-(trifluoromethyl)benzamide], the IC50 is below 500 nM. Regarding `CC(C)[C@@H](NC(=O)c1cc(C(F)(F)F)ccc1F)C(=O)N1CCC2(CC1)C(=O)N(C)C(=O)N2Cc1ccc(F)cc1` [Example 90, (R)-2-Fluoro-N-(1-(1-(4-fluorobenzyl)-3-methyl-2,4-dioxo-1,3,8-triazaspiro[4.5]decan-8-yl)-3-methyl-1-oxobutan-2-yl)-5-(trifluoromethyl)benzamide], the concentration for half-maximal inhibition (IC50) was below 500 nM. The result for `COc1ccc(CN2C(=O)N(C)C(=O)C23CCN(C(=O)[C@H](NC(=O)c2cc(C(F)(F)F)ccc2F)C(C)C)CC3)cc1` [Example 91, (R)-2-Fluoro-N-(1-(1-(4-methoxybenzyl)-3-methyl-2,4-dioxo-1,3,8-triazaspiro[4.5]decan-8-yl)-3-methyl-1-oxobutan-2-yl)-5-(trifluoromethyl)benzamide] reads below 500 nM; that for `CC(C)[C@@H](NC(=O)c1cc(C(F)(F)F)ccc1F)C(=O)N1CCC2(CC1)C(=O)N(C)C(=O)N2C(C)c1ccccc1` (stereo partly drawn) [Example 92, 2-Fluoro-N-((2R)-3-methyl-1-(3-methyl-2,4-dioxo-1-(1-phenylethyl)-1,3,8-triazaspiro[4.5]decan-8-yl)-1-oxobutan-2-yl)-5-(trifluoromethyl)benzamide], 500 to 1000 nM. As to `CC(C)[C@@H](NC(=O)c1cc(C(F)(F)F)ccc1F)C(=O)N1CCC2(CC1)C(=O)N(C)C(=O)N2Cc1ccc(S(C)(=O)=O)cc1` [Example 93, (R)-2-Fluoro-N-(3-methyl-1-(3-methyl-1-(4-(methylsulfonyl)benzyl)-2,4-dioxo-1,3,8-triazaspiro[4.5]decan-8-yl)-1-oxobutan-2-yl)-5-(trifluoromethyl)benzamide], the IC50 is at least 1000 nM.

As to `COc1cc(CN2C(=O)N(C)C(=O)C23CCN(C(=O)[C@H](NC(=O)c2cc(C(F)(F)F)ccc2F)C(C)C)CC3)ccn1` [Example 94, (R)-2-Fluoro-N-(1-(1-((2-methoxypyridin-4-yl)methyl)-3-methyl-2,4-dioxo-1,3,8-triazaspiro[4.5]decan-8-yl)-3-methyl-1-oxobutan-2-yl)-5-(trifluoromethyl)benzamide], the IC50 is below 500 nM. As to `Cc1cc(CN2C(=O)N(C)C(=O)C23CCN(C(=O)[C@H](NC(=O)c2cc(C(F)(F)F)ccc2F)C(C)C)CC3)ccn1` [Example 95, (R)-2-Fluoro-N-(3-methyl-1-(3-methyl-1-((2-methylpyridin-4-yl)methyl)-2,4-dioxo-1,3,8-triazaspiro[4.5]decan-8-yl)-1-oxobutan-2-yl)-5-(trifluoromethyl)benzamide], the IC50 lay in the range of 500 to 1000 nM. Regarding `CC(C)[C@@H](NC(=O)c1cc(C(F)(F)F)ccc1F)C(=O)N1CCC2(CC1)C(=O)N(C)C(=O)N2Cc1ccc2c(c1)OCCO2` [Example 96, (R)—N-(1-(1-((2,3-Dihydrobenzo[b][1,4]dioxin-6-yl)methyl)-3-methyl-2,4-dioxo-1,3,8-triazaspiro[4.5]decan-8-yl)-3-methyl-1-oxobutan-2-yl)-2-fluoro-5-(trifluoromethyl)benzamide], the IC50 is below 500 nM.

As for `COc1ccc(CN2C(=O)N(C)C(=O)C23CCN(C(=O)[C@H](NC(=O)c2cc(C(F)(F)F)ccc2F)C(C)C)CC3)cn1` [Example 97, (R)-2-Fluoro-N-(1-(1-((6-methoxypyridin-3-yl)methyl)-3-methyl-2,4-dioxo-1,3,8-triazaspiro[4.5]decan-8-yl)-3-methyl-1-oxobutan-2-yl)-5-(trifluoromethyl)benzamide], the IC50 was below 500 nM.
